Where two headings read alike, the source gives them in different places.
Columns and labels:
[1] = biological target: T1, recombinant human cGAS (aa147-522) (Homo sapiens, UniProt Q8N884); assay: In vitro inhibition assay of cGAS activity (ATP consumption, KinaseGlo Max); type: biochemical
T1 construct: recombinant human cGAS (aa147-522); His6-SUMO (cleaved yes); made in house; host or cells: E. coli BL21/pLys
Outline: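 De-tagged recombinant human cGAS (aa147-522, 1.5 μg/mL) was incubated 20 min at 37 °C with herring testis DNA, 6.6 μM ATP and 0.1 mM GTP in Tris pH 7.5/MgCl2 buffer plus serial compound dilutions. Remaining ATP was read by KinaseGlo Max luminescence, and IC50 was fitted from % ATP consumption versus log concentration.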

[2] = test system: cGAS activity in Reporter THP1 cell line; assay: Cellular assay to measure cGAS activity: ISRE-Gaussia luciferase reporter THP1 cells transfected with ISD; type: cell-based; details: Homo sapiens
Experimental: Cellular assay to measure cGAS activity: Reporter THP1 cell line harboring a gene encoding Gaussia Luciferase under the control of 5 tandem repeats of interferon-stimulated response elements (ISRE) fused to an ISG54 minimal promoter was used to test inhibition of cGAS activity by synthetic compounds in human cells. These cells were plated on 96-well plates at 0.3×10^6/well and incubated with serial dilutions of compounds or DMSO for 5 min, followed by transfection of 2 μg/mL of ISD (Interferon Stimulatory DNA, a 45 bp DNA oligo) or mock transfected using lipofectamine 2000 (Life Technology) method, according to manufacturer's instructions. 16 hours later, 15 μL of the media from each well was transferred to a new plate, 50 μL of solution containing 50 mM Hepes-NaOH, pH 6.5, 50 mM NaCl, 10 mM EDTA, 1 μM of coelenterazine was added to each well and luminescence was measured immediately. Fold increase in luminescence compared to mock transfection was plotted against concentrations of each compound, and IC50 is calculated using Graphpad. To evaluate the specificity of a compound, the same procedure was performed except that cells were transfected with 2 μg/mL poly(I:C) or infected with Sendai Virus (SeV) at 50 Unit/mL, which are known to activate the RIG-I-MAVS pathway. A specific inhibitory compound should inhibit interferon induction by DNA but have minimal effect on poly(I:C) or Sendai virus induced interferon reporter gene expression.
The letter codes for cGAS IC50 include: A (<2 μM); B (2-10 μM); C (>10 μM).

[3] = Table 3, read-out: cGAS Inhibition Results IC50
[4] = THP-1, Table 4, Gaussia luciferase
[5] = THP-1, untitled table after Table 4 (continuation)
[6] = Table 2, read-out: cGAS Inhibition Results IC50

T1 sequence (Q8N884 147-522): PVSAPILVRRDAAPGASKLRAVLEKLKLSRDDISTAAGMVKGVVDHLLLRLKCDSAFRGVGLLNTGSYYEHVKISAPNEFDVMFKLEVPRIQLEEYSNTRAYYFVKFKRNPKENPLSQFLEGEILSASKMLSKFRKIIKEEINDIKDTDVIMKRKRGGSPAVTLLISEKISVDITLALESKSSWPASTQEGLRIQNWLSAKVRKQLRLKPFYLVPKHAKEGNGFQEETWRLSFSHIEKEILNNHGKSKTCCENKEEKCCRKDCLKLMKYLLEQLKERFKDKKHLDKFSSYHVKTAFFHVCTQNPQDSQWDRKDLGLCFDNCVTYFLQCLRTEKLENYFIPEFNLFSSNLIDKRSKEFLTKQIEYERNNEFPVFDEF

SMILES | IC50 [1, 3] | IC50 [2, 4] | IC50 [2, 5] | IC50 [1, 6]
O=C(O)CCOC[C@@H]1CC(F)(F)CN1c1cc(-n2ccnc2)c2ccc(Cl)c(Cl)c2n1 [I-699] | < 2000 nM | < 2000 nM | – | –
O=C(O)CCc1cccc(Nc2cc(-n3ccnc3)c3ccc(Cl)c(Cl)c3n2)c1 [I-883] | < 2000 nM | – | 2000 to 10000 nM | –
COC(=O)[C@@H]1[C@@H](F)CCN1c1cc(-n2ccnc2)c2ccc(Cl)c(Cl)c2n1 [I-649, methyl (2R,3S)-1-(7,8-dichloro-4-(1H-imidazol-1-yl)quinolin-2-yl)-3-fluoropyrrolidine-2-carboxylate] | 2000 to 30000 nM | 2000 to 10000 nM | – | –
O=C(O)Cc1cc(F)cc(CNc2cc(-n3ccnc3)c3ccc(Cl)c(Cl)c3n2)c1 [I-891, 2-(3-(((7,8-dichloro-4-(1H-imidazol-1-yl)quinolin-2-yl)amino)methyl)-5-fluorophenyl)acetic acid] | < 2000 nM | – | < 2000 nM | –
COC(=O)[C@@H]1[C@H](F)CCN1c1cc(-n2ccnc2)c2ccc(Cl)c(Cl)c2n1 [I-650] | 2000 to 30000 nM | 2000 to 10000 nM | – | –
C[C@H]1CC[C@@H](COCCC(=O)O)N1c1cc(-n2ccnc2)c2ccc(Cl)c(Cl)c2n1 [I-810] | < 2000 nM | – | < 2000 nM | –
O=C(O)CCOC[C@@H]1CCCCN1c1cc(-n2ccnc2)c2ccc(Cl)c(Cl)c2n1 [I-789] | < 2000 nM | – | < 2000 nM | –
O=C(O)CCOCC1CC(O)CN(c2cc(-n3ccnc3)c3ccc(Cl)c(Cl)c3n2)C1 (stereo not drawn) [I-748] | < 2000 nM | > 10000 nM | – | –
CC1(C)C[C@@H](COCCC(=O)O)N(c2cc(-n3ccnc3)c3ccc(Cl)c(Cl)c3n2)C1 [I-794] | < 2000 nM | – | < 2000 nM | –
O=C(O)CCNC(=O)[C@@H]1[C@@H](O)CCN1c1cc(-n2ccnc2)c2ccc(Cl)c(Cl)c2n1 [I-784, 3-((2S,3S)-1-(7,8-dichloro-4-(1H-imidazol-1-yl)quinolin-2-yl)-3-hydroxypyrrolidine-2-carboxamido)propanoic acid] | < 2000 nM | – | > 10000 nM | –
C[C@@H]1CN(c2cc(-n3ccnc3)c3ccc(Cl)c(Cl)c3n2)[C@H](C(=O)O)[C@H]1O [I-778] | 2000 to 30000 nM | – | > 10000 nM | –
N[C@H]1CCN(c2cc(-n3ccnc3)c3ccc(Cl)c(Cl)c3n2)C1 [I-765, (S)-1-(7,8-dichloro-4-(1H-imidazol-1-yl)quinolin-2-yl)pyrrolidin-3-amine] | 2000 to 30000 nM | – | 2000 to 10000 nM | –
O=C(O)CCCC[C@@H]1CCCN1c1cc(-c2cn[nH]c2)c2ccc(Cl)c(Cl)c2n1 [I-684] | < 2000 nM | < 2000 nM | – | –
O=C1CN(c2cc(-n3ccnc3)c3ccc(Cl)c(Cl)c3n2)CCCN1 [I-86] | – | 2000 to 10000 nM | – | < 2000 nM
COc1ccc(-c2cc(-n3ccnc3)c3ccc(Cl)cc3n2)cc1C(=O)O [I-15] | – | > 10000 nM | – | < 2000 nM
CCOC(=O)[C@@H]1[C@@H](O)[C@H](C)CN1c1cc(-n2ccnc2)c2ccc(Cl)c(Cl)c2n1 [I-779] | 2000 to 30000 nM | – | > 10000 nM | –
O=C(O)CCOC[C@@H]1CCCN1c1cc(-c2cn[nH]c2)c2ccc(Cl)c(Cl)c2n1 [I-670] | < 2000 nM | < 2000 nM | – | –
O=C(O)CCOC[C@H]1CCCN(c2cc(-n3ccnc3)c3ccc(Cl)c(Cl)c3n2)C1 [I-745] | < 2000 nM | < 2000 nM | – | –
CC(C)OC(=O)[C@@H]1CCCN1c1cc(-n2ccnc2)c2ccc(Cl)c(Cl)c2n1 [I-595] | 2000 to 30000 nM | 2000 to 10000 nM | – | –
O=C(O)c1cccc(CNc2cc(-n3ccnc3)c3ccc(Cl)c(Cl)c3n2)c1 [I-887] | < 2000 nM | – | 2000 to 10000 nM | –
C[C@H]1C[C@@H](C(=O)O)N(c2cc(-n3ccnc3)c3ccc(Cl)c(Cl)c3n2)C1 [I-477] | < 2000 nM | 2000 to 10000 nM | – | –
O=C(O)CCOC[C@@H]1C[C@@H](N2CCOCC2)CN1c1cc(-n2ccnc2)c2ccc(Cl)c(Cl)c2n1 [I-799] | < 2000 nM | – | > 10000 nM | –
O=C(O)CCOC[C@@H]1C[C@@H](c2ccccc2)CN1c1cc(-n2ccnc2)c2ccc(Cl)c(Cl)c2n1 [I-802] | < 2000 nM | – | < 2000 nM | –

SMILES | IC50 [1, 3] | IC50 [2, 4] | IC50 [2, 5] | IC50 [1, 6]
C=C1C[C@@H](COCCC(=O)O)N(c2cc(-n3ccnc3)c3ccc(Cl)c(Cl)c3n2)C1 [I-801] | < 2000 nM | – | < 2000 nM | –
COC(=O)/C=C/C[C@@H]1CCCN1c1cc(-n2ccnc2)c2ccc(Cl)c(Cl)c2n1 [I-686] | 2000 to 30000 nM | < 2000 nM | – | –
O=C(O)CCOCC1CN(c2cc(-n3ccnc3)c3ccc(Cl)c(Cl)c3n2)C1 [I-689] | < 2000 nM | > 10000 nM | – | –
O=C(O)c1noc(CCNc2cc(-n3ccnc3)c3ccc(Cl)c(Cl)c3n2)n1 [I-882] | < 2000 nM | – | > 10000 nM | –
COC(=O)CCOC[C@@H]1[C@@H](O)CCN1c1cc(-n2ccnc2)c2ccc(Cl)c(Cl)c2n1 [I-701] | < 2000 nM | 2000 to 10000 nM | – | –
O=C(O)[C@@H]1[C@H](O)CCN1c1cc(-n2ccnc2)c2ccc(Cl)c(Cl)c2n1 [I-429] | – | > 10000 nM | – | < 2000 nM
O=C(O)CCOCc1cc(Cl)cc(-c2cc(-n3ccnc3)c3ccc(Cl)c(Cl)c3n2)c1 [I-879] | < 2000 nM | – | < 2000 nM | –
O=C1OCC2CCN(c3cc(-n4ccnc4)c4ccc(Cl)c(Cl)c4n3)C12 (stereo not drawn) [I-775, 1-(7,8-dichloro-4-(1H-imidazol-1-yl)quinolin-2-yl)hexahydro-6H-furo[3,4-b]pyrrol-6-one] | < 2000 nM | – | 2000 to 10000 nM | –
O=C(O)C1CCCCC1OC[C@@H]1CCCN1c1cc(-n2ccnc2)c2ccc(Cl)c(Cl)c2n1 (stereo partly drawn) [I-815] | < 2000 nM | – | 2000 to 10000 nM | –
O=C(O)CCOC[C@@H]1CCCN1c1cc(-n2ccnc2)c2cc(Br)c(Cl)c(Cl)c2n1 [I-857] | < 2000 nM | – | < 2000 nM | –
COc1cc(Cl)c2nc(N3CCC[C@H]3COCCC(=O)O)cc(-n3ccnc3)c2c1 [I-875] | < 2000 nM | – | < 2000 nM | –
O=C(O)COCC[C@@H]1CCCN1c1cc(-n2ccnc2)c2ccc(Cl)c(Cl)c2n1 [I-668] | < 2000 nM | < 2000 nM | – | –
O=C(O)CCCCCNc1cc(-c2cn[nH]c2)c2cc(Cl)cc(Cl)c2n1 [I-854] | < 2000 nM | – | > 10000 nM | –
C[C@H]1[C@@H](C(=O)O)N(c2cc(-n3ccnc3)c3ccc(Cl)c(Cl)c3n2)C[C@@H]1O [I-780] | 2000 to 30000 nM | – | > 10000 nM | –
COC(=O)COC[C@@H]1CN(c2cc(-c3cn[nH]c3)c3ccc(Cl)c(Cl)c3n2)CCO1 [I-751] | < 2000 nM | 2000 to 10000 nM | – | –
O=C(O)CCOCC1CCCCCN1c1cc(-n2ccnc2)c2ccc(Cl)c(Cl)c2n1 (stereo not drawn) [I-865] | < 2000 nM | – | < 2000 nM | –
NC(=O)CNC(=O)C[C@@H]1CCCN1c1cc(-n2ccnc2)c2ccc(Cl)c(Cl)c2n1 [I-539] | < 2000 nM | 2000 to 10000 nM | – | –
O=C(O)C[C@@H]1CCN1c1cc(-n2ccnc2)c2ccc(Cl)c(Cl)c2n1 [I-461] | < 2000 nM | > 10000 nM | – | –
O=C(O)COCCC[C@@H]1CCCN1c1cc(-n2ccnc2)c2ccc(Cl)c(Cl)c2n1 [I-820] | < 2000 nM | – | < 2000 nM | –
COC(=O)COC[C@@H]1CCCN1c1cc(-n2ccnc2)c2ccc(Cl)c(Cl)c2n1 [I-667, methyl (S)-2-((1-(7,8-dichloro-4-(1H-imidazol-1-yl)quinolin-2-yl)pyrrolidin-2-yl)methoxy)acetate] | < 2000 nM | < 2000 nM | – | –
COC(=O)[C@@H]1[C@@H]2[C@H](CN1c1cc(-n3ccnc3)c3ccc(Cl)c(Cl)c3n1)C2(C)C [I-471] | 2000 to 30000 nM | 2000 to 10000 nM | – | –
O=C(O)CCOC[C@@H]1C[C@H](C(F)(F)F)CN1c1cc(-n2ccnc2)c2ccc(Cl)c(Cl)c2n1 [I-793] | < 2000 nM | – | < 2000 nM | –

Reference: patent US11873291B2, “Quinoline cGAS antagonist compounds” (ImmuneSensor Therapeutics, Inc., priority 2020, dated 2024)
